The source of these data is patent publication US20070134259A1, “Methods and compositions for pharmacologially controlled targeted immunotherapy” (priority 2005, published 2007).

One assay deals with HTB-14 cells. The experiment in a line: Ligand-mediated immunostaining of cells via RGD-STZ and anti-STZ serum. It is filed as cell-based. The following applies: sequential: RGD-STZ, formaldehyde fixation, anti-STZ serum. How it is done: Cells could be stained through the ligand mediated association of antibody to the integrin molecule on the cell.
Ligand-mediated staining of HTB-14 cells was performed by incubations in sequential order. Cell were first treated with RGD-STZ then fixed with formaldehyde and stained using anti-STZ serum.
Cells were cultivated as described above. For staining, 6 well tissue culture plate containing chambered cover glasses was placed on ice and medium (DMEM, 10% FBS) replaced with same medium containing mixture of RGD-STZ and anti-STZ serum premixed at proportion giving highest signal in ELISA assay (˜10 μg of RGD-STZ in ml of rabbit serum). Mixture of RGD-STZ and serum was diluted in medium 30, 300 and 3000 times.
After 30 min of incubation specimens were washed with ice cold medium 3 times and incubated with Goat anti-Rabbit Alexa488 at concentration 10 μg/ml in DMEM. After 3 rinses with ice cold DMEM cells were fixed with 10% paraformaldehyde in PBS at room temperature, washed with PBS and mounted as above.
In some experiments cells were primed with RGD-STZ (50 μg/ml in DMEM) on ice for 20 min. then fixed with paraformaldehyde and stained further like described in first protocol.

A further assay addresses T1, purified integrin αvβ3 (Homo sapiens, UniProt P05106+P06756).
T1 construct: purchased Chemicon
Kind of assay: ELISA on purified receptor: RGD-STZ ligand mediated ternary complex formation with anti-STZ rabbit serum. Format: binding. The protocol: Indirect recognition of integrin by streptavidin mediated by RGD-biotin was used as positive control.
96 well polystyrene plates (Nunc) were coated with 1 μg/ml of purified integrin αvβ3 (Chemicon) in buffer: 50 mM Hepes , 0.1 M NaCl, 2 mM CaCl2, 1 mM MnCl2, 1 mM MgCl2 pH 7.5. Blocking was performed with 3% BSA in the same buffer for at least 1 hr.
Ternary complex formation was obtained in concurrent or sequential mode. For sequential mode experiment the ELISA plate was incubated with RGD-STZ (root of ten dilutions starting from 10 μg/ml); 2 hr, room temperature, followed by anti-STZ rabbit serum diluted 3000 times, 1 hr RT. In the concurrent mode the incubation mixture contained both RGD-STZ and anti-STZ rabbit serum. Serum concentration was kept constant (1/3000) while RGD-STZ concentration was varied as before; incubation time 2 hr. The formed complex was detected with goat anti-Rabbit HRP conjugate. Dilutions were made in same buffer supplemented with 0.05% Tween and 0.1% BSA. BSA was not included in the washing steps.
Solid-phase assays were conducted in two different formats: concurrent and sequential incubation. In the concurrent format, RGD-STZ was premixed with rabbit serum 1E6 and incubated on the plate, which was pre-coated with integrin αvβ3. In the sequential format, RGD-STZ was incubated on the integrin coated plate, washed and rabbit serum 1E6 was applied. In both formats, the signal was developed by detection of rabbit antibodies with anti-rabbit HRP antibody conjugate. […] This range of IBAIT concentrations in which a stable ternary complex is produced constitutes a therapeutic window, where the IBAIT can be applied for targeting immunoglobulins to malignancies.
That is, the sequential addition of antibody results in the continued formation of stable ternary complexes until receptor saturation plateaus.

T1 sequence (P06756 31-889 limits assumed): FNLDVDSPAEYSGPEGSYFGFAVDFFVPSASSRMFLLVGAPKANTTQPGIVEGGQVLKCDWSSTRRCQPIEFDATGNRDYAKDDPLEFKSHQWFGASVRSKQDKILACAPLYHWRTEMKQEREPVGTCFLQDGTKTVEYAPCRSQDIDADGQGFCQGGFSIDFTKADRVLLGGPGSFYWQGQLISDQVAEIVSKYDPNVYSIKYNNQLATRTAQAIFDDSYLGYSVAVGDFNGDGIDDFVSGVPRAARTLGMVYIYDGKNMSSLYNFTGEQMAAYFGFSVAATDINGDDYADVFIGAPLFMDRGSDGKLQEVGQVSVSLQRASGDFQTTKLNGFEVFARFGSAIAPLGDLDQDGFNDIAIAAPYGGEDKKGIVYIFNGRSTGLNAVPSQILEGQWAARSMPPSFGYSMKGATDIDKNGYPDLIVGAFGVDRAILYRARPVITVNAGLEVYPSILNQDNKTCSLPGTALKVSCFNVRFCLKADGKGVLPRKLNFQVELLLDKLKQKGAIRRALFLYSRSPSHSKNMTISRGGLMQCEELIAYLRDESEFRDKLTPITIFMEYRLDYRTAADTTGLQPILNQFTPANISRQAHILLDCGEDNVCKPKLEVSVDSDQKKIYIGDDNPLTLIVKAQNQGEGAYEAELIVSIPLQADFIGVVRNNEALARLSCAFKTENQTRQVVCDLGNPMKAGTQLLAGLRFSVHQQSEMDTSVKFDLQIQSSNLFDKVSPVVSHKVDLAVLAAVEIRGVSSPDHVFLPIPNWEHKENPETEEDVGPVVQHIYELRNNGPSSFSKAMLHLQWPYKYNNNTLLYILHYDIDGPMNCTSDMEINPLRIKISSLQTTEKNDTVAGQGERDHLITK
T1 sequence (P06756 891-1048 partner limits assumed): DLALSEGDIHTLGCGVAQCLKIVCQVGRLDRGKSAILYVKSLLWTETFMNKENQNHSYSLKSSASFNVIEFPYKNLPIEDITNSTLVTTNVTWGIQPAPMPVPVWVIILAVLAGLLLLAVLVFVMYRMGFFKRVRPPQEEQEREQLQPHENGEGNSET
T1 sequence (P05106 27-788): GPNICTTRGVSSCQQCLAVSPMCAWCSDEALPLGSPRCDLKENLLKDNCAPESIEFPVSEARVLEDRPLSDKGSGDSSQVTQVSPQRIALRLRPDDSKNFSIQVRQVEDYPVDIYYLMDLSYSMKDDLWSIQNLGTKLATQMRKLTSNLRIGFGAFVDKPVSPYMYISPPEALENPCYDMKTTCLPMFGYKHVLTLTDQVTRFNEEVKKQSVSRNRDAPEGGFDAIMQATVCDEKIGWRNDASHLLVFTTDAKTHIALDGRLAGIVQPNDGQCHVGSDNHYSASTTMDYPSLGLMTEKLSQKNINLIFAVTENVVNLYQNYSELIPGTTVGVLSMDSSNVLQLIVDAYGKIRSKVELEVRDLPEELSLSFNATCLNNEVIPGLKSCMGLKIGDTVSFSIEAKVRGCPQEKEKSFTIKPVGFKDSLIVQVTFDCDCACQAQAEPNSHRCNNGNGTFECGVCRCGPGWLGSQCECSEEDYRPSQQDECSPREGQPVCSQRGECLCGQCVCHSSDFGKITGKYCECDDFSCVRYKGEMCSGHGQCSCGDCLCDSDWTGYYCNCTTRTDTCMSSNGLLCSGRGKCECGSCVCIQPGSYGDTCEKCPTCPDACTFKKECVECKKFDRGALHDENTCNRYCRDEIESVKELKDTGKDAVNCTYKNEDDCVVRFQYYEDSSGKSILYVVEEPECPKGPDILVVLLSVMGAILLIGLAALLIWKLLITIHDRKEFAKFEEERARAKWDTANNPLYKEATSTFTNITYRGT

Take cyclo(-R-G-D-f-K(STZ)) [RGD-STZ]: in the assay with HTB-14 cells, the “ligand-mediated staining pattern of cells” value is “distinct pattern of dots on the plasma membrane as well as general fluorescent illumination of cells”. In addition, the “concentration dependence of ELISA signal (ternary complex formation), concurrent incubation” value at purified integrin αvβ3 (concurrent format: RGD-STZ premixed with rabbit serum, incubated on integrin coated plate, FIG. 5A) is “bell-shaped concentration dependencies”. At purified integrin αvβ3 (plates coated with purified αvβ3 integrin, anti-STZ rabbit serum, goat anti-Rabbit HRP detection), the “indirect recognition of the integrin by anti-STZ antibodies mediated by the ligand” value is “excellent indirect recognition”. In addition, the “proportion of RGD-STZ and anti-STZ serum giving highest signal in ELISA assay” value on purified integrin αvβ3 (premixed RGD-STZ and anti-STZ serum) is recorded as ~10 μg of RGD-STZ in ml of rabbit serum. Moreover, the “concentration dependence of ELISA signal (ternary complex formation), sequential incubation” value on purified integrin αvβ3 (sequential format: RGD-STZ incubated on integrin coated plate, washed, then rabbit serum, FIG. 5B) is “signal that steadily increased with increasing RGD-STZ (IBAIT) concentration”.
